Results taken from patent US20090137661A1, “PLANT DERIVED COMPOUNDS AND COMPOUND FORMULAE CONTAINING THE SAME FOR THE TREATMENT OF CERVICAL CANCER” (priority 2007, published 2009).
Converted amounts (≈) assume the structure as drawn. Read-outs that look alike come from different tables or passages of the source.

Tests used:
HeLa cells = experiment: Cytotoxicity assay (MTT assay) on HeLa cells; conditions: for IC50: Homo sapiens, HeLa; for cytotoxicity to HeLa cells compared with Doxorubicin HCl: under the corresponding conditions
Experimental: HeLa cell line was obtained from Dr. S. S. Shen (Biomedical Engineering Research Laboratories of Industrial Technology Research Institute of Taiwan). HeLa cells are adherent cells and were propagated and maintained in Dulbecco's modified Eagle's medium (DMEM) supplemented with 10% fetal bovine serum (FBS), […] sodium bicarbonate (NaHCO3), 1 mM sodium pyruvate, and 0.1 mM non-essential amino acid.
(§1) Cytotoxicity Assay (MTT Assay)
The cytotoxicity of the compounds set forth herein to HeLa cells and HUVEC cells were determined by the MTT assay. The HUVEC cells were used to understand the cytotoxicity of said compounds to normal human cells. Besides, doxorubicin HCl was used as a comparative example so as to investigate the efficacy of the compounds according to the embodiments of the present invention.
Briefly, the MTT assay comprises the following steps: • (A) Cells were seeded in 96-well plates 3 hours before treatment, wherein the density of HeLa cell is 1×10^4 cells per well and the density of HUVEC cell is 2×10^4 cells per well; • (B) Cells were then treated with various concentrations of tested samples and incubated for a predetermined period (24, 48, and 72 hours); • (C) After the predetermined periods expired, the tested samples were removed and 100 μl MTT reagent (1 mg/ml) was added to each well; • (D) The plates were incubated at 37° C. with 5% of CO2 for 5 hours; • (E) The MTT reagent was removed and 100 μl DMSO was added to each well; • (F) The optical density (O.D.) of each well was determined by ELISA reader at a wavelength of 560 nm.
Each experiment was repeated for 3 times and the result shown in the tables herein were the mean value of the 3 repetitions. The O.D. of the vehicle control and experimental groups were recorded. The cell survival rate of each sample was calculated as follows:
Cell survival rate(%)=O.D.control/O.D.experimental*100%
Then, the cell survival rate was plotted against the compound concentration and the IC50 value of each compound was calculated by the GraFit data analysis software (Erithacus Software Ltd.).

HUVEC cells = experiment: Cytotoxicity assay (MTT assay) on HUVEC cells; type: cell-based, human; conditions: for IC50: Homo sapiens, HUVEC cells
Excerpt: Human umbilical vein endothelial cells (HUVEC) were purchased from Food Industry Research and Development Institute in Hsin-Chu City, Taiwan. HUVEC cells were propagated and maintained in Medium 199 supplemented with 10% FBS, Heparin, and […].
as §1

[1] = 24 h, read-out: IC50 at 24 hours, HeLa
[2] = 48 h, read-out: IC50 at 48 hours, HeLa
[3] = 72 h, read-out: IC50 at 72 hours, HeLa
[4] = 24 hours, read-out: IC50 at 24 hours, HUVEC
[5] = 48 hours, read-out: IC50 at 48 hours, HUVEC
[6] = 72 hours, read-out: IC50 at 72 hours, HUVEC

CC(C)[C@]12O[C@H]1[C@@H]1O[C@]13[C@]1(O[C@H]1C[C@H]1C4=C(CC[C@@]13C)C(=O)OC4)[C@@H]2O [Compound B, triptolide]
HeLa Cell Survival Rate (HeLa cells; 0.001 μg/ml, 24 hrs): 98% | HeLa Cell Survival Rate (HeLa cells; 0.001 μg/ml, 48 hrs): 94% | HeLa Cell Survival Rate (HeLa cells; 0.001 μg/ml, 72 hrs): 81% | HeLa Cell Survival Rate (HeLa cells; 0.01 μg/ml, 24 hrs): 89% | HeLa Cell Survival Rate (HeLa cells; 0.01 μg/ml, 48 hrs): 37% | HeLa Cell Survival Rate (HeLa cells; 0.01 μg/ml, 72 hrs): 15% | HeLa Cell Survival Rate (HeLa cells; 0.1 μg/ml, 24 hrs): 33% | HeLa Cell Survival Rate (HeLa cells; 0.1 μg/ml, 48 hrs): 14% | HeLa Cell Survival Rate (HeLa cells; 0.1 μg/ml, 72 hrs): 9% | HeLa Cell Survival Rate (HeLa cells; 1 μg/ml, 24 hrs): 26% | HeLa Cell Survival Rate (HeLa cells; 1 μg/ml, 48 hrs): 12% | HeLa Cell Survival Rate (HeLa cells; 1 μg/ml, 72 hrs): 9% | HeLa Cell Survival Rate (HeLa cells; 100 μg/ml, 24 hrs): 20% | HeLa Cell Survival Rate (HeLa cells; 100 μg/ml, 48 hrs): 13% | HeLa Cell Survival Rate (HeLa cells; 100 μg/ml, 72 hrs): 9% | HUVEC/HeLa ratio of IC50 (HeLa cells; 24 hours): >13.9 | HUVEC/HeLa ratio of IC50 (HeLa cells; 48 hours): 20.9 | HUVEC/HeLa ratio of IC50 (HeLa cells; 72 hours): 29.3 | IC50 (HeLa cells; [1]): 0.0721 µg/mL (≈ 0.2 µM) | IC50 (HeLa cells; [2]): 0.00724 µg/mL (≈ 0.0201 µM) | IC50 (HeLa cells; [3]): 0.00287 µg/mL (≈ 0.00796 µM) | cytotoxicity to HeLa cells compared with Doxorubicin HCl (HeLa cells): higher cytotoxicity | HUVEC Cell Survival Rate (HUVEC cells; 0.001 μg/ml, 24 hrs): 93% | HUVEC Cell Survival Rate (HUVEC cells; 0.001 μg/ml, 48 hrs): 102% | HUVEC Cell Survival Rate (HUVEC cells; 0.001 μg/ml, 72 hrs): 108% | HUVEC Cell Survival Rate (HUVEC cells; 0.01 μg/ml, 24 hrs): 94% | HUVEC Cell Survival Rate (HUVEC cells; 0.01 μg/ml, 48 hrs): 111% | HUVEC Cell Survival Rate (HUVEC cells; 0.01 μg/ml, 72 hrs): 114% | HUVEC Cell Survival Rate (HUVEC cells; 0.1 μg/ml, 24 hrs): 59% | HUVEC Cell Survival Rate (HUVEC cells; 0.1 μg/ml, 48 hrs): 36% | HUVEC Cell Survival Rate (HUVEC cells; 0.1 μg/ml, 72 hrs): 23% | HUVEC Cell Survival Rate (HUVEC cells; 1 μg/ml, 24 hrs): 71% | HUVEC Cell Survival Rate (HUVEC cells; 1 μg/ml, 48 hrs): 35% | HUVEC Cell Survival Rate (HUVEC cells; 1 μg/ml, 72 hrs): 23% | IC50 (HUVEC cells; [4]): > 1 µg/mL | IC50 (HUVEC cells; [5]): 0.151 µg/mL (≈ 0.419 µM) | IC50 (HUVEC cells; [6]): 0.084 µg/mL (≈ 0.233 µM)

O=c1c(O)c(-c2ccc(O)c(O)c2)oc2cc(O)cc(O)c12 [Compound E, quercetin]
HeLa Cell Survival Rate (HeLa cells; 0.1 μg/ml, 24 hrs): 93% | HeLa Cell Survival Rate (HeLa cells; 1 μg/ml, 72 hrs): 91% | HeLa Cell Survival Rate (HeLa cells; 10 μg/ml, 24 hrs): 83% | HeLa Cell Survival Rate (HeLa cells; 10 μg/ml, 48 hrs): 51% | HeLa Cell Survival Rate (HeLa cells; 10 μg/ml, 72 hrs): 33% | HeLa Cell Survival Rate (HeLa cells; 100 μg/ml, 48 hrs): 32% | HeLa Cell Survival Rate (HeLa cells; 100 μg/ml, 72 hrs): 12% | IC50 (HeLa cells; [1]): > 100 µg/mL | IC50 (HeLa cells; [2]): 20 µg/mL (≈ 66.2 µM) | IC50 (HeLa cells; [3]): 6 µg/mL (≈ 19.9 µM) | HUVEC Cell Survival Rate (HUVEC cells; 10 μg/ml, 48 hrs): 87% | HUVEC Cell Survival Rate (HUVEC cells; 10 μg/ml, 72 hrs): 80% | HUVEC Cell Survival Rate (HUVEC cells; 100 μg/ml, 24 hrs): 120% | HUVEC Cell Survival Rate (HUVEC cells; 100 μg/ml, 48 hrs): 51% | HUVEC Cell Survival Rate (HUVEC cells; 100 μg/ml, 72 hrs): 26% | IC50 (HUVEC cells; [4]): > 100 µg/mL | IC50 (HUVEC cells; [5]): 104 µg/mL (≈ 344 µM) | IC50 (HUVEC cells; [6]): 36 µg/mL (≈ 119 µM)

Cc1cc2c(C(C)C)c(O)c(O)c(C=O)c2c(O)c1-c1c(C)cc2c(C(C)C)c(O)c(O)c(C=O)c2c1O [Compound F, gossypol-acetic acid]
HeLa Cell Survival Rate (HeLa cells; 0.1 μg/ml, 24 hrs): 101% | HeLa Cell Survival Rate (HeLa cells; 0.1 μg/ml, 48 hrs): 103% | HeLa Cell Survival Rate (HeLa cells; 0.1 μg/ml, 72 hrs): 98% | HeLa Cell Survival Rate (HeLa cells; 1 μg/ml, 24 hrs): 97% | HeLa Cell Survival Rate (HeLa cells; 1 μg/ml, 48 hrs): 105% | HeLa Cell Survival Rate (HeLa cells; 1 μg/ml, 72 hrs): 98% | HeLa Cell Survival Rate (HeLa cells; 10 μg/ml, 24 hrs): 80% | HeLa Cell Survival Rate (HeLa cells; 10 μg/ml, 48 hrs): 52% | HeLa Cell Survival Rate (HeLa cells; 10 μg/ml, 72 hrs): 40% | HeLa Cell Survival Rate (HeLa cells; 100 μg/ml, 24 hrs): 17% | HeLa Cell Survival Rate (HeLa cells; 100 μg/ml, 48 hrs): 13% | HeLa Cell Survival Rate (HeLa cells; 100 μg/ml, 72 hrs): 10% | HUVEC/HeLa ratio of IC50 (HeLa cells; 24 hours): 1.0 | HUVEC/HeLa ratio of IC50 (HeLa cells; 48 hours): 2.8 | HUVEC/HeLa ratio of IC50 (HeLa cells; 72 hours): 2.9 | IC50 (HeLa cells; [1]): 29 µg/mL (≈ 55.9 µM) | IC50 (HeLa cells; [2]): 12 µg/mL (≈ 23.1 µM) | IC50 (HeLa cells; [3]): 8 µg/mL (≈ 15.4 µM) | cytotoxicity to HeLa cells compared with Doxorubicin HCl (HeLa cells): higher cytotoxicity | HUVEC Cell Survival Rate (HUVEC cells; 0.1 μg/ml, 24 hrs): 93% | HUVEC Cell Survival Rate (HUVEC cells; 0.1 μg/ml, 48 hrs): 104% | HUVEC Cell Survival Rate (HUVEC cells; 0.1 μg/ml, 72 hrs): 103% | HUVEC Cell Survival Rate (HUVEC cells; 1 μg/ml, 24 hrs): 88% | HUVEC Cell Survival Rate (HUVEC cells; 1 μg/ml, 48 hrs): 104% | HUVEC Cell Survival Rate (HUVEC cells; 1 μg/ml, 72 hrs): 98% | HUVEC Cell Survival Rate (HUVEC cells; 10 μg/ml, 24 hrs): 80% | HUVEC Cell Survival Rate (HUVEC cells; 10 μg/ml, 48 hrs): 85% | HUVEC Cell Survival Rate (HUVEC cells; 10 μg/ml, 72 hrs): 71% | HUVEC Cell Survival Rate (HUVEC cells; 100 μg/ml, 24 hrs): 20% | HUVEC Cell Survival Rate (HUVEC cells; 100 μg/ml, 48 hrs): 17% | HUVEC Cell Survival Rate (HUVEC cells; 100 μg/ml, 72 hrs): 17% | IC50 (HUVEC cells; [4]): 30 µg/mL (≈ 57.9 µM) | IC50 (HUVEC cells; [5]): 33 µg/mL (≈ 63.6 µM) | IC50 (HUVEC cells; [6]): 23 µg/mL (≈ 44.4 µM)
